According to ChEMBL document CHEMBL1140822, “Prodrug thiamine analogs as inhibitors of the enzyme transketolase” (Bioorg Med Chem Lett, 2008):
Active and inactive are the calls of the source. The rule behind the calls is not given here.

Assays:
Transketolase = biological target: T1, Transketolase (Homo sapiens, UniProt P29401); experiment: Inhibition of transketolase in human HCT116 cells; format: cell-based, HCT-116
T1 sequence (P29401 whole entry): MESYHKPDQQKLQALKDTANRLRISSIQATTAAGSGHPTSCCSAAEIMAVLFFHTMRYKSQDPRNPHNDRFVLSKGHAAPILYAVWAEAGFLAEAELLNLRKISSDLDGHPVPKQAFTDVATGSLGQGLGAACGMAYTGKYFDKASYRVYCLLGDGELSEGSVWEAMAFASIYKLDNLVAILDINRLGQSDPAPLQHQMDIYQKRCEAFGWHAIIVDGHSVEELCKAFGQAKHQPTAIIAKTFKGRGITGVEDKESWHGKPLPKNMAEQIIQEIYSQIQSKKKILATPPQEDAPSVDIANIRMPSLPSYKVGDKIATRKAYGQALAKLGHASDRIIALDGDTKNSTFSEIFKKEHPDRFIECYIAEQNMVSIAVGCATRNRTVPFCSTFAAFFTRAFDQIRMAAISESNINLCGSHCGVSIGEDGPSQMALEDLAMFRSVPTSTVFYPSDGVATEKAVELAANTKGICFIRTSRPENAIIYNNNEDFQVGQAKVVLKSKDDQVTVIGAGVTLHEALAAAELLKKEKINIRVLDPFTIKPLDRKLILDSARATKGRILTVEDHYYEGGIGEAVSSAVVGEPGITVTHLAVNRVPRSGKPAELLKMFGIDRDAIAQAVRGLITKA

[1] = Mean residence time in rat at 3 mg/kg, iv; format: ADME, organism-based; design: dose 3 mg/kg, route intravenous; conditions: in vivo
Mus musculus = experiment: Inhibition of transketolase in BALB/c mouse blood at 100 mg/kg, ip after 72 hrs; format: functional, organism-based; design: dose 100 mg/kg
[2] = Cmax in rat at 3 mg/kg, iv; format: ADME, organism-based; design: dose 3 mg/kg, route intravenous; conditions: in vivo
[3] = AUC in rat at 3 mg/kg, iv; format: ADME, organism-based; design: dose 3 mg/kg, route intravenous; conditions: plasma
[4] = Volume of distribution at steady state in rat at 3 mg/kg, iv; format: ADME, organism-based; design: dose 3 mg/kg, route intravenous; conditions: in vivo, read-out: Vdss
[5] = Clearance in rat at 3 mg/kg, iv; format: ADME, organism-based; design: dose 3 mg/kg, route intravenous; conditions: in vivo

Row | EC50 (Transketolase) [µM] | SMILES | further results
1 | 0.015 | C/C(=C1\CCOC(=O)S1)N(C=O)Cc1ccc(C)nc1N | 
2 | 0.012 | C/C(=C(\CCO)SS/C(CCO)=C(/C)N(C=O)Cc1ccc(C)nc1N)N(C=O)Cc1ccc(C)nc1N | MRT [1]: 12.7 h; Activity (Mus musculus): Active; Cmax [2]: 1120 ng/mL; AUC [3]: 1590 ng·h/mL; Vd [4]: 19.3 L/kg; clearance [5]: 32.5 mL/min/kg
3 | 0.013 | C/C(=C(\CCO)SSCCO)N(C=O)Cc1ccc(C)nc1N | 
4 | 0.052 | C/C(=C(\CCO)SSCCC(=O)O)N(C=O)Cc1ccc(C)nc1N | 
5 | 0.008 | C/C(=C(\CCO)SS/C(CCO)=C(/C)N(C=O)Cc1ccc(Cl)nc1N)N(C=O)Cc1ccc(Cl)nc1N | 
6 | 0.116 | C/C(=C(\CCO)SCOC(=O)C(C)(C)C)N(C=O)Cc1ccc(C)nc1N | MRT [1]: 48.3 h; Cmax [2]: 3020 ng/mL; AUC [3]: 79200 ng·h/mL; Vd [4]: 1.83 L/kg; clearance [5]: 0.63 mL/min/kg
7 | 0.028 | C/C(=C(\CCOC(=O)c1ccccc1)SC(=O)c1ccccc1)N(C=O)Cc1ccc(C)nc1N | 
8 | 0.028 | Cc1ccc(C[n+]2c(C)sc(CCO)c2C)c(N)n1 | 
9 | 0.008 | CC(=O)OCC/C(SC(C)=O)=C(\C)N(C=O)Cc1ccc(C)nc1N | 
10 | 0.009 | Cc1c(CCO)sc[n+]1Cc1ccc(Cl)nc1N | 
11 | 0.11 | Cc1c(CCO)sc[n+]1Cc1cccnc1N | 
12 | 0.032 | CC(=O)N(Cc1ccc(C)nc1N)/C(C)=C(/CCO)SS/C(CCO)=C(/C)N(Cc1ccc(C)nc1N)C(C)=O | 
13 | 0.479 | C/C(=C(\CCO)SS/C(CCO)=C(/C)N(C=O)Cc1cccnc1N)N(C=O)Cc1cccnc1N | 
14 | 9.54 | Cc1ccc(C[n+]2csc(CCO)c2)c(N)n1 | 
15 | 102 | Cc1ccc(CN(C=O)/C=C(/CCO)SS/C(=C\N(C=O)Cc2ccc(C)nc2N)CCO)c(N)n1 | 
16 | 0.018 | Cc1ccc(C[n+]2csc(CCO)c2C)c(N)n1.[Cl-] | MRT [1]: 0.72 h; Cmax [2]: 6610 ng/mL; AUC [3]: 1250 ng·h/mL; Vd [4]: 1.98 L/kg; clearance [5]: 41.3 mL/min/kg
17 | 6 | CCCCS/C(CCO)=C(/C)N(C=O)Cc1ccc(C)nc1N | 
